According to patent US8461170B2, “Chemical compounds” (Astrazeneca AB, priority 2010, dated 2013):
Like-named read-outs stand apart in the source and are kept apart here.

Tests used:
ALK (h) = ALK (h) (Homo sapiens, UniProt Q9UM73); experiment: alternate ALK protocol (33P-ATP filter-binding radiometric assay); assay type: biochemical; details: 250 μM KKKSPGEYVNIEFG substrate, [γ-33P-ATP], 40 minutes at room temperature, read-out: ALK inhibitory activities (IC50s (μM))
Procedure: Examples 1, 9 and 10 were additionally tested using an alternate ALK protocol as follows: ALK (h) was incubated with 8 mM MOPS pH 7.0, 0.2 mM EDTA, 250 μM KKKSPGEYVNIEFG, 10 mM MgAcetate and [γ-33P-ATP] (specific activity approx. 500 cpm/pmol, concentration as required). The reaction was initiated by the addition of the MgATP mix. After incubation for 40 minutes at room temperature, the reaction was stopped by the addition of 3% phosphoric acid solution. 10 μL of the reaction was spotted onto a P30 filtermat and washed three times for 5 minutes in 75 mM phosphoric acid and once in methanol prior to drying and scintillation counting. When tested in the assay described above, Examples 1, 9 and 10 each had ALK inhibitory activities (IC50s (μM)) of 0.004, 0.019, and 0.006, respectively.

human ALK = target: T1, human ALK (Homo sapiens, UniProt Q9UM73); experiment: ALK kinase mobility shift assay (Caliper LC3000); assay type: biochemical; details: ATP 30 μM (Km) or 5 mM, not specified which
T1 construct: GST (N); purchased Invitrogen, Carlsbad, Calif; (or prepared by AstraZeneca); host or cells: insect cells
Procedure: ALK kinase activity was determined by measuring the kinase's ability to phosphorylate a tyrosine residue within a peptide substrate using a mobility shift assay on a Caliper LC3000 reader (Caliper Life Sciences, Hopkinton, Mass.), which measures fluorescence of the phosphorylated and unphosphorylated substrate and calculates a ratiometric value to determine percent turnover.
To measure ALK kinase activity, the ALK enzyme used was N-terminal GST-tagged, recombinant, human ALK, amino acids 1058-1620 (Genbank Accession number NP_004295) expressed in insect cells and activated in-vitro via autophosphorylation. This was either purchased from a commercially available source (Invitrogen, Carlsbad, Calif.) or prepared by AstraZeneca. The kinase was incubated with a FAM labeled SRCtide substrate (5FAM-GEEPLYWSFPAKKK-NH2, AnaSpec, Fremont, Calif.), 30 μM adenosine triphosphate (ATP, at Km concentration) or 5 mM ATP, 50 mM HEPES buffer (pH 7.3), 1 mM DTT, 0.01% Tween 20, 50 μg/ml BSA and 10 mM MgCl2 for 90 minutes at room temperature. After this time, the kinase reaction was stopped by adding quenching buffer containing final concentrations of 36 mM ethylenediaminetetraacetic acid (EDTA), 65 mM HEPES buffer (pH 7.3), 0.2% Coatin Reagent 3 (Caliper Life Sciences, Hopkinton, Mass.), and 0.003% Tween 20. The reaction was performed in 384 well microtitre plates and the reaction products were detected using the Caliper LC3000 Reader in the presence of separation buffer consisting of 100 mM HEPES (pH 7.3), 15.8 mM EDTA, 0.1% Coatin Reagent 3 (Caliper, Mass.), 0.015% Brij-35, 5% DMSO, and 5.6 mM MgCl2. The separation conditions set up on the Caliper LC3000 were −1.7 PSI, −400V upstream voltage, −2000V downstream voltage, 0.2 second sample sip, 45 second post sip, and 150 seconds final delay. The percentage of inhibition of ALK enzyme activity by compounds were measured based on Max signals (DMSO control) and Min signals (EDTA control) in the plates. Data was graphed and IC50s calculated by IDBS ActivityBase program.

[1] = cumulative geometric means including test re-runs, some obtained since the priority filings, read-out: ALK Enzyme IC50 (μM)**
[2] = geometric means of multiple test runs, as presented in the priority filings, read-out: ALK Enzyme IC50 (μM)*

ALK (h), sequence (Q9UM73 19-1620): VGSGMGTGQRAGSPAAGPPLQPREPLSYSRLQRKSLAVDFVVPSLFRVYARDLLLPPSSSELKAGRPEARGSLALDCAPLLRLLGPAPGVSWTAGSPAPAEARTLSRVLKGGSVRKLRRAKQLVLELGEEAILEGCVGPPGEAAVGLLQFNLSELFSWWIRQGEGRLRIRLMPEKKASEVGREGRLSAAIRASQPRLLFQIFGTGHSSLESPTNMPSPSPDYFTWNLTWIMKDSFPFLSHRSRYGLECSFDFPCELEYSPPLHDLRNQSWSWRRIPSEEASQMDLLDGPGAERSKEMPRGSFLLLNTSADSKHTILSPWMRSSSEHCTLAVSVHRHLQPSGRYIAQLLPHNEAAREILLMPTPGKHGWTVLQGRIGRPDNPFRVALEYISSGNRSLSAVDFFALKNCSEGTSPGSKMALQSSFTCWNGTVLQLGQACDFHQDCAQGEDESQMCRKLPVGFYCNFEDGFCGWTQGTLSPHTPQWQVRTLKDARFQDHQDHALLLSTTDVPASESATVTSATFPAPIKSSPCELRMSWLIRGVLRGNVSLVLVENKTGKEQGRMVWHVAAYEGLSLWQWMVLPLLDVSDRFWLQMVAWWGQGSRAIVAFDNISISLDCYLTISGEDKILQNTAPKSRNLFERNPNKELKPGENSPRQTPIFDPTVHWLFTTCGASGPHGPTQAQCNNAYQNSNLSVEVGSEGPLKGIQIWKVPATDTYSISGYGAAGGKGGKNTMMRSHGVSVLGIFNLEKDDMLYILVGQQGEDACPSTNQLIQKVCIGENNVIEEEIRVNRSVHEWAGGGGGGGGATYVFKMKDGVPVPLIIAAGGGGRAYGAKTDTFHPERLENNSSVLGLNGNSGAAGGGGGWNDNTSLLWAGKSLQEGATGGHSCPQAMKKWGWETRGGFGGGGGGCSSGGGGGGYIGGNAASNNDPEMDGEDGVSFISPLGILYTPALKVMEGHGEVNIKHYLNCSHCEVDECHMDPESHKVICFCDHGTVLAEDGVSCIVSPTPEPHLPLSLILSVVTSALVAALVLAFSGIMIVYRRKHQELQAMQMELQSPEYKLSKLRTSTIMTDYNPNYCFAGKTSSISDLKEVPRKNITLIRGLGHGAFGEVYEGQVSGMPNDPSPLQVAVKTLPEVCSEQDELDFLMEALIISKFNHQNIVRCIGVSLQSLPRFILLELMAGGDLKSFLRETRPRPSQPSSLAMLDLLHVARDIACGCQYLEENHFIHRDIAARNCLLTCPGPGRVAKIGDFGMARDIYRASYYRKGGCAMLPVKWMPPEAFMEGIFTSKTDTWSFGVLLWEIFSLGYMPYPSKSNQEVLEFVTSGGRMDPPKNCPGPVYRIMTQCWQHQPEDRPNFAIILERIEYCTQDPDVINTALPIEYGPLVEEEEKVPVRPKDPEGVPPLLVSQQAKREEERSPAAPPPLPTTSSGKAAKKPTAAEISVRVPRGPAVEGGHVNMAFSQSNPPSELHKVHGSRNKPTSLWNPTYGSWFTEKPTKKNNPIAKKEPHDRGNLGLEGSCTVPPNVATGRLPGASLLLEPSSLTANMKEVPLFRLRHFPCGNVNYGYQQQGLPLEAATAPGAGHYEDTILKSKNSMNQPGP
T1 sequence (Q9UM73 1058-1620): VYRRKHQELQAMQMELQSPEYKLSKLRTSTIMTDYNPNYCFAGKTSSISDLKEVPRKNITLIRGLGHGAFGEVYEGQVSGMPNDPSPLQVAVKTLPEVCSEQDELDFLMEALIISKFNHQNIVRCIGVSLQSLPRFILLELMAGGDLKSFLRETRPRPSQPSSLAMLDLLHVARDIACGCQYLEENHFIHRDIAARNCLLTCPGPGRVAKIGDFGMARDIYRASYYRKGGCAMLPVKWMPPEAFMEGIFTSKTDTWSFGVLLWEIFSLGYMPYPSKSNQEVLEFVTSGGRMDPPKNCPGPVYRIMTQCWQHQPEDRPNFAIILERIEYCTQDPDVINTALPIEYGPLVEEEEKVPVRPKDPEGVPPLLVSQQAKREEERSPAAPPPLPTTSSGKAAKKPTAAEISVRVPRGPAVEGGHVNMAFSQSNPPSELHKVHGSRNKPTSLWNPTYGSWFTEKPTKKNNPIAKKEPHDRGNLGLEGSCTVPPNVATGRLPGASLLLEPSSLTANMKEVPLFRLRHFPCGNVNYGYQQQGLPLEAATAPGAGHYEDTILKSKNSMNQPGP

IC50 (ALK (h)) [µM]	IC50 (human ALK; [1]) [µM]	IC50 (human ALK; [2]) [µM]	Structure (SMILES)
0.004	0.021	0.015	COc1cc(N2CCC(N)CC2)ccc1Nc1ncc(Cl)c(-c2c[nH]c3ccccc23)n1 [Example 1, N-(4-(4-Aminopiperidin-1-yl)-2-methoxyphenyl)-5-chloro-4-(1H-indol-3-yl)pyrimidin-2-amine]
0.019	0.068	0.05	COc1cc(N2CCC(N3CCN(C)CC3)CC2)ccc1Nc1ncc(C)c(-c2c[nH]c3ccccc23)n1 [Example 9, 4-(1H-Indol-3-yl)-N-(2-methoxy-4-(4-(4-methylpiperazin-1-yl)piperidin-1-yl)phenyl)-5-methylpyrimidin-2-amine]
0.006		0.02	COc1cc(N2CCC(N3CCN(C)CC3)CC2)ccc1Nc1ncc(Cl)c(-c2c[nH]c3ccccc23)n1 [Example 10, 5-Chloro-4-(1H-indol-3-yl)-N-(2-methoxy-4-(4-(4-methylpiperazin-1-yl)piperidin-1-yl)phenyl)pyrimidin-2-amine]
		0.148	COc1cc(N2CCC(N3CCN(C)CC3)CC2)ccc1Nc1ncc(Cl)c(-c2cn(C)c3ccccc23)n1 [Example 34, 5-Chloro-N-(2-methoxy-4-(4-(4-methylpiperazin-1-yl)piperidin-1-yl)phenyl)-4-(1-methyl-1H-indol-3-yl)pyrimidin-2-amine]
		0.098	COc1cc(N2CCC(N)CC2)ccc1Nc1ncc(Cl)c(-c2cn(C)c3ccccc23)n1 [Example 35, N-(4-(4-aminopiperidin-1-yl)-2-methoxyphenyl)-5-chloro-4-(1-methyl-1H-indol-3-yl)pyrimidin-2-amine]
		1.48	COc1cc(N2CCC(N3CCN(C)CC3)CC2)ccc1Nc1ncc(F)c(-c2cn(C)c3ccccc23)n1 [Example 36, 5-fluoro-N-(2-methoxy-4-(4-(4-methylpiperazin-1-yl)piperidin-1-yl)phenyl)-4-(1-methyl-1H-indol-3-yl)pyrimidin-2-amine]
		0.244	COc1cc(N2CCC(N3CCN(C)CC3)CC2)c(F)cc1Nc1ncc(F)c(-c2c[nH]c3ccccc23)n1 [Example 37, 5-Fluoro-N-[5-fluoro-2-methoxy-4-[4-(4-methylpiperazin-1-yl)-1-piperidyl]phenyl]-4-(1H-indol-3-yl)pyrimidin-2-amine]
		0.258	COc1cc(N2CCC(N3CCN(C)CC3)CC2)c(F)cc1Nc1ncc(C)c(-c2c[nH]c3ccccc23)n1 [Example 38, N-[5-fluoro-2-methoxy-4-[4-(4-methylpiperazin-1-yl)-1-piperidyl]phenyl]-4-(1H-indol-3-yl)-5-methyl-pyrimidin-2-amine]
		0.225	COc1cc(N2CCC(N3CCN(C)CC3)CC2)c(F)cc1Nc1ncc(Cl)c(-c2c[nH]c3ccccc23)n1 [Example 39, 5-chloro-N-[5-fluoro-2-methoxy-4-[4-(4-methylpiperazin-1-yl)-1-piperidyl]phenyl]-4-(1H-indol-3-yl)pyrimidin-2-amine]
		0.198	COc1cc(N2CCC(N3CCN(C)CC3)CC2)c(Cl)cc1Nc1ncc(Cl)c(-c2c[nH]c3ccccc23)n1 [Example 40, 5-chloro-N-[5-chloro-2-methoxy-4-[4-(4-methylpiperazin-1-yl)-1-piperidyl]phenyl]-4-(1H-indol-3-yl)pyrimidin-2-amine]
		0.068	COc1cc(N2CCC(N)CC2)ccc1Nc1ncc(F)c(-c2c[nH]c3ccccc23)n1 [Example 41, N-[4-(4-Amino-1-piperidyl)-2-methoxy-phenyl]-5-fluoro-4-(1H-indol-3-yl)pyrimidin-2-amine]
